According to US4426519A, “7-(2-Amino-4-thiazolyl)-acetamido cephalosporanic acids” (Roussel Uclaf, priority 1979, dated 1984):
Where a name gives a salt, the structure may show the parent alone. Read-outs that look alike come from different tables or passages of the source.

Tests used:
[1] = system: Bacillus subtilis ATCC 6 633; assay: MIC, dilution in liquid medium; type: cell-based
Method: (§1) The method used was a dilution of a liquid medium where a series of tubes received the same quantity of a sterile nutritive media and increasing doses of the test compounds were placed therein. Then each tube was seeded with a bacterial strain and was incubated for 24 to 48 hours at 37° C. in an oven. The increasing inhibition was determined by transillulumination to determine the minimum inhibiting concentration (MIC in μg/ml) and the results are reported in the following Tables.

Enterobacter cloacae 681 = assay: MIC, dilution in liquid medium; type: cell-based
Method: as §1

[2] = system: Escherichia Coli Resistant Gentamycine, Tobramycine R 55 123 D; assay: MIC, dilution in liquid medium; type: cell-based; conditions: read-out: MIC
Method: as §1

[3] = system: Escherichia Coli Resistant Tetracycline ATCC 11 303; assay: MIC, dilution in liquid medium; type: cell-based
Method: as §1

[4] = system: Escherichia Coli sensitive Tetracycline ATCC 9 637; assay: MIC, dilution in liquid medium; type: cell-based
Method: as §1

[5] = system: Klebsiella pneumoniae 2 536 Resistant Gentamycine; assay: MIC, dilution in liquid medium; type: cell-based
Method: as §1

[6] = system: Klebsiella pneumoniae Exp. 52 145; assay: MIC, dilution in liquid medium; type: cell-based; conditions: read-out: MIC
Method: as §1

[7] = system: Proteus mirabilis (indol-) A 235; assay: MIC, dilution in liquid medium; type: cell-based
Method: as §1

Providencia Du 48 = assay: MIC, dilution in liquid medium; type: cell-based
Method: as §1

[8] = system: Pseudomonas 8951 Resistant Gentamycine Tetracycline; assay: MIC, dilution in liquid medium; type: cell-based
Method: as §1

[9] = system: Salmonella typhimurium 420; assay: MIC, dilution in liquid medium; type: cell-based; conditions: Salmonella enterica, read-out: MIC
Method: as §1

[10] = system: Serratia Resistant Gentamycine 2 532; assay: MIC, dilution in liquid medium; type: cell-based; conditions: read-out: MIC
Method: as §1

[11] = system: Staphylococcus aureus ATCC 6 538 Pen Sensitive; assay: MIC, dilution in liquid medium; type: cell-based
Method: as §1

[12] = system: Staphylococcus aureus UC 1 128 Pen-resistant; assay: MIC, dilution in liquid medium; type: cell-based
Method: as §1

[13] = system: Staphylococcus aureus exp.n°54 146; assay: MIC, dilution in liquid medium; type: cell-based
Method: as §1

[14] = system: Streptococcus pyogenes A 561; assay: MIC, dilution in liquid medium; type: cell-based
Method: as §1

Escherichia coli TO26 B6 = assay: Experimental infection with Escherichia coli TO26 B6 in mice; type: in vivo; conditions: for No. of mice surviving 8th day: subcutaneous 1, 5 and 24 hours after infection, control 0/10; for Mortality after hours: subcutaneous, group of 10 mice
Method: The product of Example 1 was studied for its activity against an experimental infection of Escherichia coil in groups of 10 male mice weighing about 21.5 g. The mice received an intraperitoneal injection of 0.5 ml of a 24 hour old culture in a nutritive media of Escherichia Coli TO26 B6 of the Pasteur Institute diluted 1/5 with distilled water. The test product was administered subcutaneously 1 hour and 5 and 24 hours after the infection and the number of dead was determined after 8 days.

Proteus mirabilis A 235 = assay: Experimental infection of Proteus mirabilis in mice; type: in vivo; conditions: for Mice surviving on 8th day: subcutaneous 1, 5 and 24 hours after infection, controls 0/10; for Mortality after hours: subcutaneous, group of 10 mice
Method: Groups of 10 mice with an average weight of 21.5 g received intraperitoneally 0.5 ml of a 24 hour old culture in oxoid bouillon of Proteus mirabilis A 235 diluted 1/10 with distilled water. The mice then received subcutaneously the compound of Example 1 one hour and 5 and 24 hours after the infection and the results are reported in the following Table.

Proteus Morganii A236 = assay: Experimental infection of Proteus Morganii A236 in mice; type: in vivo; conditions: for Mice surviving on 8th day: cutaneously 1,5 and 24 hours after injection, controls 0/10; for Mortality after hours: cutaneously, group of 10 mice
Method: The activity of the product of Example 1 against an experimental infection of Proteus Morganii […] was determined in groups of 10 mice weighing an average of 20.5 g which were infected by intraperitoneal injection of 0.5 ml of a culture thereof in a medium with a pH of 7 diluted to one tenth.

[15] = system: Klebsiella Pneumonia No. 52,145; assay: Experimental infection of Klebsiella Pneumoniae in mice; type: in vivo; conditions: for Mice surviving on 8th day: by injection 1,5 and 24 hours after infection, controls 0/10; for Mortality after hours: by injection, group of 10 mice
Method: The activity of the compound of Example 1 against an experimental infection of Klebsiella Pneumonia No. 52,145 was determined on groups of 10 mice having an average weight of 21 g by intraperitoneal injection of 0.5 ml of a culture thereof with a pH of 6 diluted to 1/1500.

CC(=O)OCC1=C(C(=O)O)N2C(=O)C(NC(=O)/C(=N\OCCSC(=N)N)c3csc(N)n3)C2SC1 (stereo not drawn) [Example 1, Trifluoroacetate of the syn isomer of 3-acetoxymethyl-7-[2-(2-amino-4-thiazolyl)-2-(2-aminoiminomethylthio-ethoxyimino)acetamido]-ceph-3-eme-4-carboxylic acid]
8/10: Mice surviving on 8th day ([15]; dose 0,25 mg)
0.05 µg/mL: MIC ([3]; ATCC11, 24 h) | MIC ([3]; ATCC11, 48 h)
2: Mortality after hours (Proteus Morganii A236; dose 0,05 mg, 6H)
2/10: Mice surviving on 8th day (Proteus Morganii A236; dose 0,05 mg)
3: Mortality after hours (Proteus Morganii A236; dose 0,05 mg, 21H10)
1 µg/mL: MIC ([1]; ATCC6, 24 h) | MIC ([1]; ATCC6, 48 h) | MIC ([4]; ATCC9, 24 h) | MIC ([4]; ATCC9, 48 h) | MIC ([5]; 24 h)
9/10: Mice surviving on 8th day ([15]; dose 0,5 mg)
0.5 µg/mL: MIC ([2]; 24 h) | MIC ([2]; 48 h) | MIC ([6]; EXP.52145, 24 h) | MIC ([6]; EXP.52145, 48 h) | MIC ([9]; 24 h) | MIC ([9]; 48 h) | MIC ([10]; 24 h) | MIC ([10]; 48 h)
0.02 µg/mL: MIC ([14]; A561, 24 h) | MIC ([14]; A561, 48 h)
20 µg/mL: MIC ([8]; 24 h) | MIC ([8]; 48 h)
3 µg/mL: MIC (Providencia Du 48; DU48, 48 h) | MIC ([12]; UC1, 48 h)
1: Mortality after hours (Escherichia coli TO26 B6; dose 0.1 mg, 21H30) | Mortality after hours (Escherichia coli TO26 B6; dose 0.1 mg, 24 H) | Mortality after hours (Escherichia coli TO26 B6; dose 0.1 mg, 28 H) | Mortality after hours (Escherichia coli TO26 B6; dose 0.1 mg, 36 H) | Mortality after hours (Proteus mirabilis A 235; dose 0,025 mg, 23H45) | Mortality after hours (Proteus mirabilis A 235; dose 0,025 mg, 25 H) | Mortality after hours (Proteus mirabilis A 235; dose 0,025 mg, 31 H) | Mortality after hours (Proteus Morganii A236; dose 0,05 mg, 4H) | Mortality after hours (Proteus Morganii A236; dose 0,05 mg, 6H15) | Mortality after hours (Proteus Morganii A236; dose 0,05 mg, 45H20) | Mortality after hours ([15]; dose 0,1 mg, 4 J) | Mortality after hours ([15]; dose 0,1 mg, 5 J) | Mortality after hours ([15]; dose 0,1 mg, 6 J) | Mortality after hours ([15]; dose 0,1 mg, 8 J) | Mortality after hours ([15]; dose 0,5 mg, 6 J) | Mortality after hours ([15]; dose 0,25 mg, 4 J) | Mortality after hours ([15]; dose 0,25 mg, 6 J)
2 µg/mL: MIC (Enterobacter cloacae 681; Enterobacter cloacae, 681, 24 h) | MIC (Enterobacter cloacae 681; Enterobacter cloacae, 681, 48 h) | MIC ([5]; 48 h) | MIC (Providencia Du 48; DU48, 24 h) | MIC ([11]; ATCC6, 24 h) | MIC ([11]; ATCC6, 48 h) | MIC ([12]; UC1, 24 h) | MIC ([13]; 24 h) | MIC ([13]; 48 h)
10/10: No. of mice surviving 8th day (Escherichia coli TO26 B6; dose 0.25 mg) | Mice surviving on 8th day (Proteus mirabilis A 235; dose 0,1 mg) | Mice surviving on 8th day (Proteus mirabilis A 235; dose 0,05 mg) | Mice surviving on 8th day (Proteus mirabilis A 235; dose 0,5 mg) | Mice surviving on 8th day (Proteus mirabilis A 235; dose 0,25 mg) | Mice surviving on 8th day (Proteus Morganii A236; dose 0,1 mg) | Mice surviving on 8th day (Proteus Morganii A236; dose 0,5 mg) | Mice surviving on 8th day (Proteus Morganii A236; dose 0,25 mg) | Mice surviving on 8th day ([15]; dose 1 mg) | Mice surviving on 8th day ([15]; dose 1,5 mg)
6/10: No. of mice surviving 8th day (Escherichia coli TO26 B6; dose 0.1 mg) | Mice surviving on 8th day ([15]; dose 0,1 mg)
7/10: Mice surviving on 8th day (Proteus mirabilis A 235; dose 0,025 mg)
0.1 µg/mL: MIC ([7]; 24 h) | MIC ([7]; 48 h)
